Assay results as given in patent US20240245711A1, “A 19-NOR C3,3-DISUBSTITUTED C21-N-PYRAZOLYL STEROID FOR THE TREATMENT OF MAJOR DEPRESSIVE DISORDER” (Sage Therapeutics, Inc., priority 2021, published 2024).
Entries after “also recorded” stand apart in the source; their conditions may differ.

Tested on: adult subjects with Major Depressive Disorder
Experiment: Phase 3 open-label 1-year study: safety and tolerability (TEAEs, SAEs, C-SSRS)
Assay type: in vivo, human
Experimental: Primary Objective: To determine the safety and tolerability of initial treatment and re-treatment(s) with Compound (1) in adults with Major Depressive Disorder (MDD) currently experiencing a major depressive episode (MDE) over a 1-year period.
Study Population: Subjects were 18-75 years old, diagnosed with major depressive disorder (MDD) with a MADRS total score of ≥28 and a HAM-D total score of ≥20 at Screening and Day 1 (prior to dosing).
Treatment Groups: The 30 mg and 50 mg dose groups were separated by time of enrollment. The study is comprised of two cohorts: one with Compound (1) 30 mg as a starting dose (30 mg Cohort: n=725), an initial cohort with Compound (1) 50 mg as a starting dose (50 mg Cohort: n=199). A patient receiving Compound (1) 30 mg could be dose reduced to 20 mg and patients receiving Compound (1) 50 mg could be dose reduced to 40 mg (based on tolerability). In all cohorts, Compound (1) is self-administered by patients as an oral therapy once nightly with food for 14 days.
The study has a Screening Period of up to 28 days, a 14-day Treatment Period, and up to 1 year of Follow-up. FIG. 1 is an overview of the study.
Antidepressants were permitted provided subjects were on a stable dose for at least 60 days prior to Day 1 and agreed to continue on the stable dose through the follow-up period (Day 42). Initiation of new antidepressants or any other medications that may potentially have an impact on efficacy or safety endpoints were not allowed between screening and completion of the Day 42 assessments.
Eligible subjects were given Compound (1)—to be taken at home in the evening with meal.
Subjects who continued in the Observation Period were monitored remotely via PHQ-9 assessment every two weeks. If PHQ-9 score was >=10 at any assessment, PHQ-9 assessment was switch to every week until the score came down below 10 or the subject was dosed with Compound (1) in a subsequent cycle, whichever was earlier. A subject was to come back to the site for HAM-D assessment within a week of PHQ-9 score >=10; if the HAM-D total score >=20 and at least 56 days had elapsed since the last dose of Compound (1), another dosing cycle of Compound (1) were to start. If any of these criteria were not met, the subject couldn't be treated with Compound (1) at that time. Without the trigger of PHQ-9>=10 the subject was to have a clinic visit every 8 weeks. A subject could have at most 5 cycles of treatment within a year. FIG. 2 is a depiction of the eligibility criteria of the study.
Dose reduction from 30 mg to 20 mg or 50 mg to 40 mg was allowed in any treatment cycle if the safety and/or tolerability of the subject so warrants. […] Subjects who dose reduced from 30 mg to 20 mg still started with 30 mg in the next treatment cycle.
The cohorts pertaining to the different doses that the subjects received were defined as following: • 50 mg cohort: This cohort includes subjects who have initiated treatment with 50 mg and received re-treatment with 50 mg only. • 30 mg cohort: This cohort includes subjects who have initiated treatment with 30 mg regardless of the dose they have received in re-treatments. • Low dose cohort: This cohort includes subjects who have initiated treatment with 30 mg and received re-treatment with 30 mg only. • Dose switch cohort: This cohort includes subjects who have received initial treatment with 30 mg and at least one subsequent re-treatment with 50 mg. • Study Period X: starts on the date of the first dose of Compound (1) in cycle X and goes up to one day prior to the first dose of the next cycle. […]

[1] = 50 mg Cohort, one-year follow-up (Example 4)
[2] = Low Dose Cohort, ATD use at period-specific baseline No, Study Period 1
[3] = Low Dose Cohort, ATD use at period-specific baseline No, Study Period 2

C[C@@]1(O)CC[C@H]2[C@H](CC[C@@H]3[C@@H]2CC[C@]2(C)[C@@H](C(=O)Cn4cc(C#N)cn4)CC[C@@H]32)C1 [Compound (1), 1-(2-((3R,5R,8R,9R,10S,13S,14S,17S)-3-hydroxy-3,13-dimethylhexadecahydro-1H-cyclopenta[a]phenanthren-17-yl)-2-oxoethyl)-1H-pyrazole-4-carbonitrile]
Subjects with at least one TEAE leading to study drug discontinuation (30 mg Cohort (N = 725)): 19 (2.6%) | Subjects with at least one TEAE leading to study withdrawal (30 mg Cohort (N = 725)): 32 (4.4%) | Subjects with at least one serious TEAE (30 mg Cohort (N = 725)): 20 (2.8%) | TEAE severity Mild, subjects n (%) (30 mg Cohort (N = 725)): 200 (27.6%) | TEAE severity Moderate, subjects n (%) (30 mg Cohort (N = 725)): 248 (34.2%) | TEAE severity Severe / subjects with at least one severe TEAE, n (%) (30 mg Cohort (N = 725)): 45 (6.2%) | Events of loss of consciousness (30 mg and 50 mg, as of the cutoff date): No events of loss of consciousness | Possibly or probably related SAEs (50 mg Cohort): Confusional state; also recorded: Asthenia; also recorded: Delirium | Subjects with at least one serious TEAE (50 mg Cohort (N = 199)): 7 (3.5%) | TEAE Arthralgia, subjects n (%) (50 mg Cohort (N = 199)): 1 (0.5%) | TEAE Back Pain, subjects n (%) (50 mg Cohort (N = 199)): 0% | TEAE Diarrhea, subjects n (%) (50 mg Cohort (N = 199)): 4 (2.0%) | TEAE Dizziness, subjects n (%) (50 mg Cohort (N = 199)): 30 (15.1%) | TEAE Dry Mouth, subjects n (%) (50 mg Cohort (N = 199)): 7 (3.5%) | TEAE Fatigue, subjects n (%) (50 mg Cohort (N = 199)): 5 (2.5%) | TEAE Headache, subjects n (%) (50 mg Cohort (N = 199)): 20 (10.1%) | TEAE Insomnia, subjects n (%) (50 mg Cohort (N = 199)): 10 (5.0%) | TEAE Nausea, subjects n (%) (50 mg Cohort (N = 199)): 11 (5.5%) | TEAE Sedation, subjects n (%) (50 mg Cohort (N = 199)): 18 (9.0%) | TEAE Somnolence, subjects n (%) (50 mg Cohort (N = 199)): 29 (14.6%) | TEAE Upper Respiratory Tract Infection, subjects n (%) (50 mg Cohort (N = 199)): 1 (0.5%) | TEAE severity Mild, subjects n (%) (50 mg Cohort (N = 199)): 45 (22.6%) | TEAE severity Moderate, subjects n (%) (50 mg Cohort (N = 199)): 65 (32.7%) | TEAE severity Severe / subjects with at least one severe TEAE, n (%) (50 mg Cohort (N = 199)): 15 (7.5%) | Withdrawn in Treatment Cycle 1: Adverse event, n (%) (50 mg Cohort (n = 199)): 11 (5.5%) | Maximum severity of TEAEs reported by the majority of subjects [1]: mild to moderate | TEAE Dizziness, subjects n (%) [1]: 15.1% | TEAE Headache, subjects n (%) [1]: 12.7% | TEAE Insomnia, subjects n (%) [1]: 7.0% | TEAE Nausea, subjects n (%) [1]: 6.5% | TEAE Sedation, subjects n (%) [1]: 10.1% | TEAE Somnolence, subjects n (%) [1]: 16.1% | TEAE tremor, subjects (n; %) [1]: 5.5% | Subjects reporting TEAEs leading to discontinuation of study drug (50 mg Cohort, one-year follow-up (Example 4), 13/199): 6.5% | Subjects reporting TEAEs leading to withdrawal from study (50 mg Cohort, one-year follow-up (Example 4), 16/199): 8.0% | Subjects reporting at least one adverse event (50 mg Cohort, one-year follow-up (Example 4), 137 of 199): 68.8% | Subjects reporting TEAEs leading to dose reduction, n/N (50 mg cohort, Cycle 2): 2/26 | Proportion of subjects reporting TEAEs (50 mg cohort, as printed in b423 (46/76)): 60.5% | Subjects reporting TEAEs leading to dose reduction (50 mg cohort, overall (34/199)): 17.1% | Tolerability (Compound (1) 50 mg, 50 mg Cohort followed up to one year (Example 4)): generally well-tolerated | Subjects with at least one serious TEAE (Dose Switch Cohort (N = 80)): 1 (1.3%) | TEAE Arthralgia, subjects n (%) (Dose Switch Cohort (N = 80)): 5 (6.3%) | TEAE Back Pain, subjects n (%) (Dose Switch Cohort (N = 80)): 5 (6.3%) | TEAE Diarrhea, subjects n (%) (Dose Switch Cohort (N = 80)): 11 (13.8%) | TEAE Dizziness, subjects n (%) (Dose Switch Cohort (N = 80)): 7 (8.8%) | TEAE Dry Mouth, subjects n (%) (Dose Switch Cohort (N = 80)): 3 (3.8%) | TEAE Fatigue, subjects n (%) (Dose Switch Cohort (N = 80)): 8 (10.0%) | TEAE Headache, subjects n (%) (Dose Switch Cohort (N = 80)): 13 (16.3%) | TEAE Insomnia, subjects n (%) (Dose Switch Cohort (N = 80)): 5 (6.3%) | TEAE Nausea, subjects n (%) (Dose Switch Cohort (N = 80)): 3 (3.8%) | TEAE Sedation, subjects n (%) (Dose Switch Cohort (N = 80)): 11 (13.8%) | TEAE Somnolence, subjects n (%) (Dose Switch Cohort (N = 80)): 10 (12.5%) | TEAE Upper Respiratory Tract Infection, subjects n (%) (Dose Switch Cohort (N = 80)): 5 (6.3%) | TEAE severity Mild, subjects n (%) (Dose Switch Cohort (N = 80)): 13 (16.3%) | TEAE severity Moderate, subjects n (%) (Dose Switch Cohort (N = 80)): 36 (45.0%) | TEAE severity Severe / subjects with at least one severe TEAE, n (%) (Dose Switch Cohort (N = 80)): 8 (10.0%) | Proportion of subjects reporting TEAEs (Dose Switch cohort, as printed in b423 (37/48)): 77.1% | Subjects reporting TEAEs leading to dose reduction (Dose switch cohort, Cycle 1 while on 30 mg): 2.5% | Subjects reporting TEAEs leading to dose reduction (Dose switch cohort, Cycle 2 while on 30 mg): 2.5% | Subjects reporting TEAEs leading to dose reduction (Dose switch cohort, Cycle 3 while switched to 50 mg): 4.2% | Subjects reporting TEAEs leading to dose reduction (Dose switch cohort, Cycle 4 while switched to 50 mg): 3.8% | Subjects reporting TEAEs leading to dose reduction (Dose switch cohort, Cycle 5 while switched to 50 mg): 17.4% | Subjects reporting TEAEs leading to dose reduction (Dose switch cohort, overall (12/80)): 15.0% | Possibly or probably related SAEs (Low Dose Cohort): Suicidal ideation | Subjects with at least one serious TEAE (Low Dose Cohort (N = 645)): 19 (2.9%) | TEAE Arthralgia, subjects n (%) (Low Dose Cohort (N = 645)): 14 (2.2%) | TEAE Back Pain, subjects n (%) (Low Dose Cohort (N = 645)): 18 (2.8%) | TEAE Diarrhea, subjects n (%) (Low Dose Cohort (N = 645)): 43 (6.7%) | TEAE Dizziness, subjects n (%) (Low Dose Cohort (N = 645)): 47 (7.3%) | TEAE Dry Mouth, subjects n (%) (Low Dose Cohort (N = 645)): 40 (6.2%) | TEAE Fatigue, subjects n (%) (Low Dose Cohort (N = 645)): 27 (4.2%) | TEAE Headache, subjects n (%) (Low Dose Cohort (N = 645)): 90 (14.0%) | TEAE Insomnia, subjects n (%) (Low Dose Cohort (N = 645)): 31 (4.8%) | TEAE Nausea, subjects n (%) (Low Dose Cohort (N = 645)): 25 (3.9%) | TEAE Sedation, subjects n (%) (Low Dose Cohort (N = 645)): 29 (4.5%) | TEAE Somnolence, subjects n (%) (Low Dose Cohort (N = 645)): 76 (11.8%) | TEAE Upper Respiratory Tract Infection, subjects n (%) (Low Dose Cohort (N = 645)): 52 (8.1%) | TEAE severity Mild, subjects n (%) (Low Dose Cohort (N = 645)): 187 (29.0%) | TEAE severity Moderate, subjects n (%) (Low Dose Cohort (N = 645)): 212 (32.9%) | TEAE severity Severe / subjects with at least one severe TEAE, n (%) (Low Dose Cohort (N = 645)): 37 (5.7%) | Withdrawn in Treatment Cycle 1: Adverse event, n (%) (Low Dose Cohort (n = 645)): 15 (2.3%) | Subjects with a TEAE leading to study drug discontinuation [2]: (3.2%) | Subjects with a Treatment cycle period AE leading to study withdrawal [2]: (3.7%) | Subjects with at least one TEAE [2]: (67.5%) | Subjects with at least one Treatment cycle period TEAE [2]: (53.6%) | Subjects with at least one Treatment cycle period serious TEAE [2]: (1.3%) | Subjects with at least one Treatment cycle period severe TEAE [2]: (2.6%) | Subjects with at least one Treatment period AE [2]: (51.2%) | Subjects with a TEAE leading to study drug discontinuation [3]: 1 (0.8%) | Subjects with a Treatment cycle period AE leading to study withdrawal [3]: 3 (2.5%) | Subjects with at least one TEAE [3]: 75 (63.6%) | Subjects with at least one Treatment cycle period TEAE [3]: 58 (49.2%) | Subjects with at least one Treatment cycle period serious TEAE [3]: 0% | Subjects with at least one Treatment cycle period severe TEAE [3]: 2 (1.7%)
